Measured values as given in patent US20140336259A1, “PHENOLIC COMPOUNDS WITH ANTIOXIDANT AND ANTI-CANCER PROPERTIES, ANALOGS AND SYNTHESIS THEREOF” (priority 2011, published 2014).
In brackets after ≈: the same amount, converted by molar mass. Several values for one entry are separate records, joined by “and”; a condition that tells them apart may be missing. Equal values may be shown once. Read-outs that look alike come from different tables or passages of the source.

How the values were obtained:
[1] = tested on: MDA-MB-231 (ER negative) human breast cancer cells; assay: MTS antiproliferative/cytotoxicity assay on MDA-MB-231 cells; format: cell-based
[2] = tested on: MCF-7 (estrogen receptor (ER) positive) human breast cancer cells; assay: MTS antiproliferative/cytotoxicity assay on MCF-7 cells; conditions: for MCF-7 IC50: 72 h treatment, mean ± S.D., vs DMSO 0.5% control; for antiproliferative / cytotoxic activity in words: against MCF-7 cells and MDA-MB 231 cells, 72 h of treatment
[3] = tested on: MCF-7 (estrogen receptor (ER) positive) human breast cancer cells
[4] = Homo sapiens, MDA-MB-231, 72 h, 72 h, read-out: IC50 MDA-MB-231 72 h
[5] = Homo sapiens, MDA-MB-231, 72 h, 72 h treatment, mean ± S.D., vs DMSO 0.5% control, read-out: MDA-MB-231 IC50
[6] = Homo sapiens, MDA-MB-231, 96 h, 96 h, read-out: IC50 MDA-MB-231 96 h
[7] = read-out: IC50 MCF-7 48 h, 48 h
[8] = read-out: IC50 MCF-7 72 h, 72 h
[9] = read-out: IC50 MCF-7 96 h, 96 h
[10] = Homo sapiens, MDA-MB-231, 48 h, read-out: IC50 MDA-MB-231 48 h, 48 h
[11] = read-out: IC50 MCF-7 24 h, 24 h
[12] = Homo sapiens, MDA-MB-231, 24 h, 24 h, read-out: IC50 MDA-MB-231 24 h
[13] = 24 h, read-out: IC50 MDA-MB-231 24 h
[14] = 72 h, read-out: IC50 MDA-MB-231 72 h
[15] = 72 h treatment, mean ± S.D., vs DMSO 0.5% control
[16] = 96 h, read-out: IC50 MDA-MB-231 96 h
[17] = read-out: IC50 MDA-MB-231 48 h, 48 h

Row | SMILES | IC50 [1, 4] | IC50 [1, 5] | IC50 [1, 6] | IC50 MCF-7 48 h ([2]; 48 h) | MCF-7 IC50 [2] | IC50 MCF-7 96 h ([2]; 96 h) | antiproliferative / cytotoxic activity in words [2] | IC50 [2, 7] | IC50 [2, 8] | IC50 [2, 9] | IC50 [1, 10] | IC50 MCF-7 24 h ([2]; 24 h) | IC50 [2, 11] | also measured
1 | OCc1cc(CCCCCCCCCCCCc2ccc(O)c(CO)c2)ccc1O [TRD5] | 81.6 µg/mL and 197 µM | 62.9 to 77.4 µg/mL | 78.2 µg/mL and 189 µM | 80.9 µg/mL (≈ 195 µM) | 75.9 ± 1.9 µg/mL | 66.5 µg/mL (≈ 160 µM) | moderate cytotoxic activity | 195 µM | 183 µM | 160 µM | – | – | – | –
2 | COc1ccc(C(O)(c2ccc(OC)c(Cl)c2)c2ccc(OC)c(Cl)c2)cc1Cl [TRD10] | 77.4 µg/mL and 170 µM | 62.9 to 77.4 µg/mL | 68.7 µg/mL and 151 µM | 81.9 µg/mL (≈ 180 µM) | 73.5 ± 1.8 µg/mL | 54.4 µg/mL (≈ 120 µM) | – | 180 µM | 162 µM | 120 µM | 85.8 µg/mL and 189 µM | 87.0 µg/mL (≈ 192 µM) | 192 µM | antiproliferative / cytotoxic activity in words [3]: moderate cytotoxic activity
3 | COc1ccc(C(O)(c2ccc(OC)c(O)c2)c2ccc(OC)c(O)c2)cc1O [TRD6] | 75.2 µg/mL and 189 µM | 62.9 to 77.4 µg/mL | 71.5 µg/mL and 179 µM | 66.1 µg/mL (≈ 166 µM) | 60.4 ± 1.9 µg/mL | 43.6 µg/mL (≈ 109 µM) | moderate cytotoxic activity | 166 µM | 152 µM | 109 µM | – | 78.7 µg/mL (≈ 198 µM) | 198 µM | –
4 | COc1cc(C(O)c2ccc(OCc3ccccc3)c(OC)c2)ccc1OCc1ccccc1 [QB46] | 62.9 µg/mL and 138 µM | 62.9 to 77.4 µg/mL | 53 µg/mL and 116 µM | 59.5 µg/mL (≈ 130 µM) | 44.8 ± 1.7 µg/mL | 36.8 µg/mL (≈ 80.6 µM) | moderate cytotoxic activity | 130 µM | 98.1 µM | 80.7 µM | 72.4 µg/mL and 159 µM | 73.2 µg/mL (≈ 160 µM) | 160 µM | IC50 [1, 12]: 78.3 µg/mL and 172 µM
5 | CCOC(=O)C(c1ccc(O)c(OC)c1)C(c1ccc(O)c(OC)c1)c1ccc(O)c(OC)c1 (stereo not drawn) [QB57] | 85.1 µg/mL and 182 µM | 85.1 ± 1.8 µg/mL | 73.8 µg/mL and 158 µM | – | – | – | – | – | – | – | – | – | – | –
6 | COc1ccc(C(O)(c2ccc(OC)c(F)c2)c2ccc(OC)c(F)c2)cc1F [TRD7] | – | – | – | 32.7 µg/mL (≈ 80.9 µM) | – | 23.2 µg/mL (≈ 57.4 µM) | highest antiproliferative activities | 80.9 µM | 61.3 µM | 57.3 µM | – | 42.3 µg/mL (≈ 105 µM) | 105 µM | IC50 MDA-MB-231 24 h ([1]; 24 h): 36.4 µg/mL (≈ 90 µM); IC50 [1, 13]: 90 µM; IC50 MDA-MB-231 48 h ([1]; 48 h): 30.4 µg/mL (≈ 75.2 µM); IC50 MDA-MB-231 72 h ([1]; 72 h): 24.0 µg/mL (≈ 59.3 µM); IC50 [1, 14]: 59.4 µM; MDA-MB-231 IC50 [1, 15]: 24.0 ± 2.1 µg/mL; IC50 MDA-MB-231 96 h ([1]; 96 h): 15.6 µg/mL (≈ 38.6 µM); IC50 [1, 16]: 38.7 µM; IC50 [1, 17]: 75.3 µM; IC50 MCF-7 72 h ([2]; 72 h): 24.8 µg/mL (≈ 61.3 µM)
7 | COc1ccc(C(O)(c2ccc(OC)c(Br)c2)c2ccc(OC)c(Br)c2)cc1Br [TRD9] | 97.8 µg/mL and 167 µM | 97.8 ± 3.5 µg/mL | 89.9 µg/mL and 153 µM | 102.5 µg/mL (≈ 175 µM) | 91.4 ± 3.4 µg/mL | 82.3 µg/mL (≈ 140 µM) | – | 175 µM | 156 µM | 140 µM | 108 µg/mL and 183 µM | 110.7 µg/mL (≈ 189 µM) | 189 µM | IC50 [1, 12]: 115 µg/mL and 196 µM
8 | CCOC(=O)C(c1ccc(OCc2ccccc2)c(OC)c1)C(c1ccc(OCc2ccccc2)c(OC)c1)c1ccc(OCc2ccccc2)c(OC)c1 (stereo not drawn) [QB56] | 136 µg/mL and 185 µM | 136 ± 3.7 µg/mL | 129 µg/mL and 176 µM | – | 138.1 ± 3.1 µg/mL | 124.9 µg/mL (≈ 169 µM) | – | – | 188 µM | 170 µM | 143 µg/mL and 195 µM | – | – | –
9 | COC(=O)c1cc(C(O)(c2ccc(O)c(C(=O)OC)c2)c2ccc(O)c(C(=O)OC)c2)ccc1O [TRD1] | 93.9 µg/mL and 195 µM | 93.9 ± 2.4 µg/mL | 89.4 µg/mL and 185 µM | 89.1 µg/mL (≈ 185 µM) | 84.1 ± 3.4 µg/mL | 78.3 µg/mL (≈ 162 µM) | – | 185 µM | 174 µM | 162 µM | – | 94.2 µg/mL (≈ 195 µM) | 195 µM | –
10 | COc1cc(C(O)c2ccccc2OC)ccc1OCc1ccccc1 (stereo not drawn) [QB12] | 67.2 µg/mL and 192 µM | 62.9 to 77.4 µg/mL | 58 µg/mL and 165 µM | – | 65.0 ± 1.4 µg/mL | 59.6 µg/mL (≈ 170 µM) | moderate cytotoxic activity | – | 185 µM | 170 µM | – | – | – | –
11 | COc1ccc(C(O)(c2ccc(OC)c(C=O)c2)c2ccc(OC)c(C=O)c2)cc1C=O [TRD8] | 17.4 µg/mL and 40 µM | 17.5 to 24 µg/mL | 11.2 µg/mL and 25.8 µM | 21.8 µg/mL (≈ 50.2 µM) | 10.6 ± 2.1 µg/mL | 7.0 µg/mL (≈ 16.1 µM) | highest antiproliferative activities | 50.1 µM | 24.3 µM | 16.2 µM | 27.8 µg/mL and 63.9 µM | 42.0 µg/mL (≈ 96.7 µM) | 96.7 µM | IC50 [1, 12]: 43.5 µg/mL and 100 µM
12 | COc1cc(C(CO)C(c2ccc(O)c(OC)c2)c2ccc(O)c(OC)c2)ccc1O (stereo not drawn) [QUEBECOL SYNTHETIC, 4,4′,4″-(3-Hydroxypropane-1,1,2-triyl)tris(2-methoxyphenol)] | – | – | – | 54.2 µg/mL (≈ 127 µM) | 44.4 ± 1.8 µg/mL | 38.0 µg/mL (≈ 89.1 µM) | – | 127 µM | 104 µM | 89.1 µM | – | 67.2 µg/mL (≈ 158 µM) | 158 µM | IC50 MDA-MB-231 24 h ([1]; 24 h): 72.5 µg/mL (≈ 170 µM); IC50 [1, 13]: 170 µM; IC50 MDA-MB-231 48 h ([1]; 48 h): 55.6 µg/mL (≈ 130 µM); IC50 MDA-MB-231 72 h ([1]; 72 h): 48.5 µg/mL (≈ 114 µM); IC50 [1, 14]: 114 µM; MDA-MB-231 IC50 [1, 15]: 48.5 ± 1.9 µg/mL; IC50 MDA-MB-231 96 h ([1]; 96 h): 43.8 µg/mL (≈ 103 µM); IC50 [1, 16]: 103 µM; IC50 [1, 17]: 130 µM
